Measurements published in ChEMBL document CHEMBL1201862, “PubChem BioAssay data set” (2004).
Activity calls are given as the source filed them.

Key:
[1] = Trypanosoma cruzi growth suppression in host cells – NIH3T3 host cells, beta-gal luminescence, confirmation (AID 2044); assay type: functional, cell-based;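 further: intracellular parasites grown in NIH/3T3 mouse fibroblasts as host cells; luminescent beta-galactosidase reporter signal from transgenic T. cruzi replicating inside host cells; inhibitors lower the luminescence signal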
[2] = target: G-protein coupled receptor 55 (Homo sapiens, UniProt Q9Y2T6); experiment: selective activators of receptor GPR55 – imaging, U2OS cells, beta-arrestin-GFP redistribution, primary screen (AID 1961); assay type: functional
[3] = NIH3T3 cell viability loss – ATP luminescence, mouse fibroblasts, counter-screen, dose response (AID 2010); assay type: functional, cell-based;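 further: cells exposed to compound for about 90 hours before reading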
[4] = target: T1, Neuropeptide Y receptor type 1 (Homo sapiens, UniProt P25929); experiment: IC50 of human NPY-Y1 blockers – cell-based, dose response (AID 1277); assay type: functional
T1 sequence (P25929 whole entry): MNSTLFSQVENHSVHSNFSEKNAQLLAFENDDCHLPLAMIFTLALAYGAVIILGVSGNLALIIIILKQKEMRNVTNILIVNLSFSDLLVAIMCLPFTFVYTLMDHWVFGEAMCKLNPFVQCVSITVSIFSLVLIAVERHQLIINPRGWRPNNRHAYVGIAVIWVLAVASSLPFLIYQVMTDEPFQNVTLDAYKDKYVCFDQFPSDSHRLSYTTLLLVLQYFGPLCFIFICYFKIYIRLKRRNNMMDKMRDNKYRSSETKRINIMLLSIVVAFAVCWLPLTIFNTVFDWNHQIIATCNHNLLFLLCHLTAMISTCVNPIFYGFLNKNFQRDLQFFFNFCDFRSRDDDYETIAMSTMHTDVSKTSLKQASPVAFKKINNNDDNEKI

[5] = target: T2, Neuropeptide Y receptor type 2 (Homo sapiens, UniProt P49146); experiment: IC50 for human NPY-Y2 blockade – cell-based, counter-screen for NPY-Y1 antagonist project, dose response (AID 1278); assay type: functional
T2 sequence (P49146 whole entry): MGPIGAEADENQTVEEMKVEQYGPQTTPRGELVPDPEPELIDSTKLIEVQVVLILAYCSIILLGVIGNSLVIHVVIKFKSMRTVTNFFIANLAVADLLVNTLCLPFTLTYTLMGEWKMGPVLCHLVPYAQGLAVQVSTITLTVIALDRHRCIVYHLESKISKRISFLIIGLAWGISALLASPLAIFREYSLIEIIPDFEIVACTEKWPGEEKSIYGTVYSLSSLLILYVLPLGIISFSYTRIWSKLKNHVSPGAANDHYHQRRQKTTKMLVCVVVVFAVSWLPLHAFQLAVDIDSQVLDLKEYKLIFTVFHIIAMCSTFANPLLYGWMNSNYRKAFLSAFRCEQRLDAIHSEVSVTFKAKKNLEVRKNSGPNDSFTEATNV

[6] = Luminescence Cell-Based Dose Retest to Confirm Inhibitors of Cancer Stem Cells. [Related pubchem assays (depositor defined):AID2717, AID2721]; assay type: functional; conditions: Homo sapiens
[7] = HepG2 cell cytotoxicity, dose response, cytotoxicity control for non-replicating M. tuberculosis project (AID 489018); assay type: functional; conditions: Mycobacterium tuberculosis
[8] = Vero E6 cell cytotoxicity, dose response, cytotoxicity control for non-replicating M. tuberculosis project, secondary assay (AID 492998); assay type: functional, VeroE6; conditions: Vero C1008
[9] = microbe, parasite or virus in culture; assay type: functional; conditions: Mycobacterium tuberculosis
[10] = THP-1 cell cytotoxicity, dose response, cytotoxicity control for non-replicating M. tuberculosis project (AID 489025); assay type: functional
cells [11] = assay type: functional
Genome polyprotein = Genome polyprotein (dengue virus type 2, UniProt P29990); experiment: flavivirus cap methylation enzyme inhibition – biochemical, confirmation dose response, primary screen (AID 588689); assay type: functional
Hexokinase HKDC1 = Hexokinase HKDC1 (Homo sapiens, UniProt Q2TB90); experiment: inhibition of HKDC1 glucose phosphorylation – biochemical, W721R variant, dose response (AID 504729); assay type: functional
cells [12] = experiment: cells
[13] = target: Neurotensin receptor type 1 (Homo sapiens, UniProt P30989); assay type: functional;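 further: Image-based confirmatory dose-response assay measuring agonist activity at NTR1; NTR1-expressing U2OS osteosarcoma cells imaged for beta-arrestin GFP spot formation; agonist potency where compounds increase beta-arrestin recruitment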
Melanocortin receptor 4 = Melanocortin receptor 4 (Homo sapiens, UniProt P32245); assay type: functional, cell-based;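 further: Cell-based assay with luminescence read-out, confirmatory dose-response testing for agonist activity of biased ligands at MC4R; human U2OS cells with tagged receptor and beta-arrestin; potency of agonists that increase receptor coupling to beta-arrestin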
Cytochrome P450 2C9 [14] = target: T3, Cytochrome P450 2C9 (Homo sapiens, UniProt P11712)
[15] = A High Throughput Confirmatory Assay used to Identify Novel Compounds that Inhibit Mycobacterium Tuberculosis in the absence of Glycerol.; assay type: functional
[16] = target: T4, Mannose-6-phosphate isomerase (Homo sapiens, UniProt P34949); experiment: MPI enzyme activity inhibition – biochemical, fluorescence intensity, coupled assay, primary screen (AID 1209)
T4 sequence (P34949 whole entry): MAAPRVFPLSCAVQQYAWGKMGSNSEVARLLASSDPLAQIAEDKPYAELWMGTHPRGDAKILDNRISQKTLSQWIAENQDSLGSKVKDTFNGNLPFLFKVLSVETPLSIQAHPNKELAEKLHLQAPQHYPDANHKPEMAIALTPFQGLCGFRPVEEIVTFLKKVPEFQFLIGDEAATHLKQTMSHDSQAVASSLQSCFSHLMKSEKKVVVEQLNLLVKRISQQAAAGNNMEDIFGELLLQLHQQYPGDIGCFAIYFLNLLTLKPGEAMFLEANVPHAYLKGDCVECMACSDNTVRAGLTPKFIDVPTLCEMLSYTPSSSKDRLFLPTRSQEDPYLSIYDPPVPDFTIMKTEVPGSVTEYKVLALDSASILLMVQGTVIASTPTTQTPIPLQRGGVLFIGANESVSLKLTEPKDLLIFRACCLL

[17] = target: Glucose-6-phosphate 1-dehydrogenase (Homo sapiens, UniProt P11413); experiment: inhibition of Homo sapiens G6PD, dose series – biochemical, fluorescence, selectivity assay for P. falciparum G6PD inhibitor project, dose response (AID 504792); assay type: functional
[18] = target: T5, Voltage-gated N-type calcium channel alpha-1B subunit/Amyloid beta A4 precursor protein-binding family A member 1 (Homo sapiens, UniProt Q00975+Q02410); assay type: protein assay
[19] = target: T5, Voltage-gated N-type calcium channel alpha-1B subunit/Amyloid beta A4 precursor protein-binding family A member 1; assay type: protein assay; remark: listed apart in the source
[20] = target: Eukaryotic translation initiation factor 4E (Mus musculus, UniProt P63073); experiment: blockers of eIF4G binding by eIF4E – biochemical, TR-FRET, dose response (AID 855); assay type: functional;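 further: potency for disrupting eIF4E binding to eIF4GI seen as loss of FRET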
cells [21] = assay type: functional, cell-based
cells [22] = assay type: functional, cell-based; remark: listed apart in the source
HEK293 = experiment: EBV LMP1 TES2 canonical NF-kB signalling blockers – cell-based, HEK293, luciferase, cherry-pick, dose response (AID 588343); assay type: functional; conditions: Homo sapiens
[23] = A Cell Based Secondary Assay To Explore Cytotoxicity of Compounds that Sensitize Mycobacterium Tuberculosis to Beta-Lactam Antibiotics.; assay type: functional
[24] = A cytotoxicity screen of small molecule inhibitors of the PhoP region in Salmonella typhi identified in the primary screen. [Related pubchem assays: 1850, 1864, 1985 ]; assay type: functional
Cytochrome P450 2D6 = Cytochrome P450 2D6 (Homo sapiens, UniProt P10635); experiment: qHTS Assay for Inhibitors and Substrates of Cytochrome P450 2D6. [Related pubchem assays: 410 ]; assay type: ADME; conditions: read-out: Potency
Cytochrome P450 2C9 [25] = target: T3, Cytochrome P450 2C9; conditions: Potency

T3 sequence (P11712 whole entry): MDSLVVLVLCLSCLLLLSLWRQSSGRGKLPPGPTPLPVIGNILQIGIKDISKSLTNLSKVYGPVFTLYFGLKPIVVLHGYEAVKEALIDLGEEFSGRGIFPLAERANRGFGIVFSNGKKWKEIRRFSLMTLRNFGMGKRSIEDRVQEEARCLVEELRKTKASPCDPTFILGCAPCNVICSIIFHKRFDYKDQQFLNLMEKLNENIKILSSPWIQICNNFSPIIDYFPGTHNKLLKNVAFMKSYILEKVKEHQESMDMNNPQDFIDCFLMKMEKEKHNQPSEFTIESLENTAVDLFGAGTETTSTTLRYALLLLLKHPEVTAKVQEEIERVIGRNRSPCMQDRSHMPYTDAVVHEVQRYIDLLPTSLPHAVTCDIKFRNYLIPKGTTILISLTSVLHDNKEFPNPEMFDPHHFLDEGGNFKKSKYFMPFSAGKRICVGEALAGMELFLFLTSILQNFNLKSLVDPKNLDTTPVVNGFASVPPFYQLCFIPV
T5 sequence (Q00975 whole entry): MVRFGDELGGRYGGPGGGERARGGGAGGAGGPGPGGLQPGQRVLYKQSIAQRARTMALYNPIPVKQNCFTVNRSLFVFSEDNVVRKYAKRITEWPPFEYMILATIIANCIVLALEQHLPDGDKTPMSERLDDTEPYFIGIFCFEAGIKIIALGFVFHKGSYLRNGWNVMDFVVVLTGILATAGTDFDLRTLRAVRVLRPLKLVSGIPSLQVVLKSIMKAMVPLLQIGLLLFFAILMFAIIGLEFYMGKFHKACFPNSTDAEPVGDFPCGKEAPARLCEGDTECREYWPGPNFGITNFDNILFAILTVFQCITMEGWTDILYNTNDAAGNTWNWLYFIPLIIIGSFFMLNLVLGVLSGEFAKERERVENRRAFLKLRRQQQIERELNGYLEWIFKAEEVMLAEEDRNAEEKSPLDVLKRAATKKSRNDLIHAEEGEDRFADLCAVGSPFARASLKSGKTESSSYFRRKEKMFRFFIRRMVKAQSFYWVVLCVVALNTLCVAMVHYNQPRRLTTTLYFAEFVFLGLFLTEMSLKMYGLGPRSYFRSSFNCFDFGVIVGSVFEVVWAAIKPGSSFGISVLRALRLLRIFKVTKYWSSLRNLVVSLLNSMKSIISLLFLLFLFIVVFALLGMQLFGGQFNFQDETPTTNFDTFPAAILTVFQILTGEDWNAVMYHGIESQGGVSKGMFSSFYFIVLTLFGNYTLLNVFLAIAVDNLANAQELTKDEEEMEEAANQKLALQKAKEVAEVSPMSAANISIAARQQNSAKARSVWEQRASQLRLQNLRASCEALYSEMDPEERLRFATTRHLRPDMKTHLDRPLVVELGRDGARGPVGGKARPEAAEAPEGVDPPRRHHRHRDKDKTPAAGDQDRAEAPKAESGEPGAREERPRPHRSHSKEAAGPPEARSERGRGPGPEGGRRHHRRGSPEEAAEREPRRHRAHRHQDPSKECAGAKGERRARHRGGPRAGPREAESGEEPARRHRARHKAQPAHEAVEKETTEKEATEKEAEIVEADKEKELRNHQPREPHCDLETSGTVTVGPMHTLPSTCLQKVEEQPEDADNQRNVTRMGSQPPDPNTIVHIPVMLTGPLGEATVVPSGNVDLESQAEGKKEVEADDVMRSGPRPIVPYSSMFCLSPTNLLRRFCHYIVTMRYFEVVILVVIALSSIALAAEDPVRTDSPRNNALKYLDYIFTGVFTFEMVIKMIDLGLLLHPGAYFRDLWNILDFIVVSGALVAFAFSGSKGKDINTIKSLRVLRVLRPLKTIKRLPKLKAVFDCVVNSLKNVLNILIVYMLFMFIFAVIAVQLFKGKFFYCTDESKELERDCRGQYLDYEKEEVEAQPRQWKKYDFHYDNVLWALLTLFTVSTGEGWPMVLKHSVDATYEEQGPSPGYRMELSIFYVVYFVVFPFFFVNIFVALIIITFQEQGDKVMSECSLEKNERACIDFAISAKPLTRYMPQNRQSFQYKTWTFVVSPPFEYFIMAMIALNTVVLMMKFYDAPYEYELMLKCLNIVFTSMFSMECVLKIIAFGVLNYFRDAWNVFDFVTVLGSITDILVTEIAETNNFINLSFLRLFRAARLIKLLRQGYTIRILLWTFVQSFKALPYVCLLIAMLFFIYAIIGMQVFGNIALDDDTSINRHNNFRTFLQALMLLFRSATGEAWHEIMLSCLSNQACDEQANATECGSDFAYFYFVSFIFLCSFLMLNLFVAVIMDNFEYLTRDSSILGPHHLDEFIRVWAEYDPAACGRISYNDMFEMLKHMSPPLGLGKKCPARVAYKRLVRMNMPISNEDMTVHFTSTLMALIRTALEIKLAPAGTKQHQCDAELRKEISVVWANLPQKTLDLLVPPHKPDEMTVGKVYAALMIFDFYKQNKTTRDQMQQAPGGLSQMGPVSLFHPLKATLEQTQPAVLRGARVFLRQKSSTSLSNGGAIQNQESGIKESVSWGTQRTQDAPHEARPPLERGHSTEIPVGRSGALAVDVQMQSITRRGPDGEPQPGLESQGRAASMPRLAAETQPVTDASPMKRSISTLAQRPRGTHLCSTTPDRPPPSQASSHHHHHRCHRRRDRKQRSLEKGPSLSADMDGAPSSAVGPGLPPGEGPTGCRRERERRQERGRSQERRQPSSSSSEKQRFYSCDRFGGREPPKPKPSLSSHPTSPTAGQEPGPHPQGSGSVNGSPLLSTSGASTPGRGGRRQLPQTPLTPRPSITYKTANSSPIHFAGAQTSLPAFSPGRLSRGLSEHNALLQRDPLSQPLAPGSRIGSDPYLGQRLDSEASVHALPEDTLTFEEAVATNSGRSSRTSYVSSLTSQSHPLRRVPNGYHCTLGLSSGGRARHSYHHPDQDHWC
T5 sequence (Q02410 whole entry): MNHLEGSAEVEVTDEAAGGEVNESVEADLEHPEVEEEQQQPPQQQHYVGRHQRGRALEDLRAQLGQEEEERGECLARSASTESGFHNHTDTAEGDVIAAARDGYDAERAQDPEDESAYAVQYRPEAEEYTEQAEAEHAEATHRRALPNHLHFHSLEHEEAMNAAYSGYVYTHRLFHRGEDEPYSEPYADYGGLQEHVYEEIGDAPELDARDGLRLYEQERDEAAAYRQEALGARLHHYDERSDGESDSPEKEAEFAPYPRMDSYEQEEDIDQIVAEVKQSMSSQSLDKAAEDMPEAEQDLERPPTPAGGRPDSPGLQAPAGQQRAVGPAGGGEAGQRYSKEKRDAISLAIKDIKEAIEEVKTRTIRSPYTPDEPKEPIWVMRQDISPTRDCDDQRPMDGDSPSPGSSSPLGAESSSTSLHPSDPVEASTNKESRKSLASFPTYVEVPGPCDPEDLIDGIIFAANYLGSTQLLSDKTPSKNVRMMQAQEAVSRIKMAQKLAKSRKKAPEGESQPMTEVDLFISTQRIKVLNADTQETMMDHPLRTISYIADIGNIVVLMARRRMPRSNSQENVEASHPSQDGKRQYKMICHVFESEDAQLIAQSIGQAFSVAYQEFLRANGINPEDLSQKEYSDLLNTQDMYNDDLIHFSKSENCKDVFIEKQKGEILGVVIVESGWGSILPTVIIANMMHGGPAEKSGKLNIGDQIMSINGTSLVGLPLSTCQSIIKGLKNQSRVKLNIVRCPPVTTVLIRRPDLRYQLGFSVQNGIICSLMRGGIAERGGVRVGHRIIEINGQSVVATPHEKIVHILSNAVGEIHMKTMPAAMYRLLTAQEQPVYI
Chain of Hexokinase HKDC1 (Q2TB90 whole entry): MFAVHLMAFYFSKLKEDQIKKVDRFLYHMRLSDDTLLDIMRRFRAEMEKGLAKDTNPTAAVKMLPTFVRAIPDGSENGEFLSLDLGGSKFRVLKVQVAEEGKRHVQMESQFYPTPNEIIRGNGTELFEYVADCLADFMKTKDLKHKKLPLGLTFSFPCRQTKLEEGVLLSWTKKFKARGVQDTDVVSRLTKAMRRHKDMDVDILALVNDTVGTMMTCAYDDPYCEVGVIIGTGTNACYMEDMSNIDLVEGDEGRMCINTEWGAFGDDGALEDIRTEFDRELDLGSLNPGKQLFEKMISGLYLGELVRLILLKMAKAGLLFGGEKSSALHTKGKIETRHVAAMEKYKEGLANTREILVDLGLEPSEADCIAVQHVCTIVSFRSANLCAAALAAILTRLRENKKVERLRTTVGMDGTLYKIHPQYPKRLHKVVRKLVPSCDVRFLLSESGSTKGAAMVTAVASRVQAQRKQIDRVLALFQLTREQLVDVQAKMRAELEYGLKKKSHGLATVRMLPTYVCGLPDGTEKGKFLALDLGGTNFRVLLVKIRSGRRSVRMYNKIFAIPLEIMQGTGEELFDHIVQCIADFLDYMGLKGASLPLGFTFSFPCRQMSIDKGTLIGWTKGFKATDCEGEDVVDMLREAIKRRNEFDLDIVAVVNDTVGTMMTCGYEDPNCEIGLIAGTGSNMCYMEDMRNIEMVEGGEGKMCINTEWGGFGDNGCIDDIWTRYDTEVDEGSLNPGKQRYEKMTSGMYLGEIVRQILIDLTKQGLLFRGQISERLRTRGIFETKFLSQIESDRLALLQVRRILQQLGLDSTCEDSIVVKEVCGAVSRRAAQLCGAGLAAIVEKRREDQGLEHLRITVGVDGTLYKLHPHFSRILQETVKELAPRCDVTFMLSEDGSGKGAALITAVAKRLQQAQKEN
Chain of Glucose-6-phosphate 1-dehydrogenase (P11413 whole entry): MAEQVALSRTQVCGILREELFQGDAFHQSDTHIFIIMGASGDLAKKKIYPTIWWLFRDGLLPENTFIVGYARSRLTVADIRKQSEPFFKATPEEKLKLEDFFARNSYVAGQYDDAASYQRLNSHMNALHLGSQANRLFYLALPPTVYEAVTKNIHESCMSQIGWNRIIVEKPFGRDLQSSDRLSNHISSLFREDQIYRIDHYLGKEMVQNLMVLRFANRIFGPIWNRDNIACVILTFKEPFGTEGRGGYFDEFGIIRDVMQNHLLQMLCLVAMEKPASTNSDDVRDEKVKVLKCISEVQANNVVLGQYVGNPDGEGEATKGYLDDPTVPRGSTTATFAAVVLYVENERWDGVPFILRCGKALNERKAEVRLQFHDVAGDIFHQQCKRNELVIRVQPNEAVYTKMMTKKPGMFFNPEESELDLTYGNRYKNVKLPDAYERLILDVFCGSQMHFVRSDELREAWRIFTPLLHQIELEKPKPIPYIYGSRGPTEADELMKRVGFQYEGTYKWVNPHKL

Question: For `O=C(Nc1ccc(Cl)c(Cl)c1)N(Cc1cccnc1)Cc1ccco1`, which EC50 [1] is on record?
Answer: 0.552 µM (active)

Question: And the EC50 [2]?
Answer: > 32 µM (inactive)

Question: And the EC50 [3]?
Answer: > 60 µM (not active)

Question: For `COc1ccc(N(C(=O)C2CCCCC2)S(=O)(=O)c2cccc3cccnc23)cc1`, which IC50 [4] is on record?
Answer: > 35 µM (not active)

Question: And the IC50 [5]?
Answer: > 35 µM (not active)

Question: What does the source list for `CN1CCN(C2Cc3ccccc3Sc3cc(C(F)(F)F)ccc32)CC1` (configuration not stated)?
Answer: AC50 [6]: 6.72 µM (active); CC50 [7]: > 20 µM (active); CC50 [8]: > 20 µM (active); CC50 [9]: 17.9 µM (active); CC50 [10]: 17.4 µM (active); IC50 (cells [11]): 14.9 µM (active)

Question: Which IC50 (Genome polyprotein) does the source give for `CCC(c1ccccc1)C(CC)c1cc(O)c(O)c(O)c1` (configuration not stated) here?
Answer: 39.4 µM (active)

Question: And the IC50 (Hexokinase HKDC1)?
Answer: 18.3 µM (active)

Question: With `C#CCOCCOCCOCCNc1nc(N2CCN(C(=O)CCCCCCCCCCNC(=O)[C@@H]([C@H](C)O)n3cc(C)nn3)CC2)nc(N2CCN(C(=O)CCCCCCCCCCNC(=O)[C@@H]([C@H](C)O)n3cc(C)nn3)CC2)n1` as the molecule, how does the IC50 (cells [12]) read?
Answer: 15.1 µM (active)

Question: Which results are given for `CCC(C)NC(=O)c1c(N)n(/N=C/c2cccnc2)c2nc3ccccc3nc12` (configuration not stated)?
Answer: EC50 [13]: > 40 µM (inactive); EC50 (Melanocortin receptor 4): > 89.2 µM (inactive)

Question: With `CC1=NN(c2ccccc2)C(=O)/C1=C\c1c(C)[nH]n(-c2ccccc2)c1=O` as the molecule, how does the AC50 (Cytochrome P450 2C9 [14]) read?
Answer: 2.51 µM (inconclusive)

Question: And the IC50 [15]?
Answer: > 100 µM (active)

Question: Which IC50 [16] does the source give for `COc1cc(/N=c2\ssnc2Cl)cc(OC)c1` here?
Answer: 19.6 µM (active)

Question: And the IC50 [17]?
Answer: > 80 µM (inactive)

Question: And the IC50 [18]?
Answer: 6.42 µM (active)

Question: And the IC50 [19]?
Answer: 0.738 µM (active)

Question: And the IC50 [20]?
Answer: 22.6 µM (active)

Question: And the IC50 (cells [11])?
Answer: 39.2 µM (active)

Question: Which EC50 (cells [21]) does the source give for `COc1cccc(/C=N/NC(=O)CSCC(=O)Nc2ccccc2)c1O` here?
Answer: 12.7 µM (active)

Question: What about the EC50 (cells [22]) of the same molecule?
Answer: > 350 µM (not active)

Question: And the AC50 (HEK293)?
Answer: 25.4 µM (active)

Question: And the CC50 [23]?
Answer: 21.3 µM (active)

Question: For `O=C(N/N=C/c1cccnc1)c1cccc(Cl)c1`, which EC50 [24] is on record?
Answer: > 50 µM (active)

Question: With `Cc1ccc(OCC(=O)N/N=C/c2cn(C)c3ccccc23)cc1` as the molecule, how does the CC50 [23] read?
Answer: > 40 µM (active)

Question: With `O=c1cc(-c2ccccc2)oc2c1ccc1ccccc12` [ALPHA-NAPHTHOFLAVONE] as the molecule, how does the AC50 (Cytochrome P450 2D6) read?
Answer: 12.6 µM (inconclusive)

Question: What about the AC50 (Cytochrome P450 2C9 [25]) of the same molecule?
Answer: 7.94 µM (inconclusive)
